The structures appear in SMILES notation.

The test system of test [1] is Pieris brassicae. Briefly: Antifeedant activity against Pieris brassicae third-instar larvae reared on compound pre-treated Brassica oleracea L. leaf disks assessed as insect mortality at 1000 ppm measured after 6 days by conventional leaf disk method. The format is functional. As to conditions: foliar.
In test [2] the test system is Pieris brassicae. Briefly: Antifeedant activity against Pieris brassicae third-instar larvae reared on compound pre-treated Brassica oleracea L. leaf disks assessed antifeeding rate at 1000 ppm measured after 48 hr by conventional leaf disk method. It is filed as functional.

By mortality is commonly meant the percentage killed. Regarding `C/C=C(\C)C(=O)O[C@H]1C[C@@H](OC(C)=O)[C@@]2(C(=O)OC)CO[C@H]3[C@@H](O)[C@@](C)([C@]45O[C@@]4(C)[C@@H]4C[C@H]5O[C@@H]5OC=C[C@@]54O)[C@H]4[C@]1(CO[C@]4(O)C(=O)OC)[C@@H]32` [AZADIRACHTIN A], the mortality at 1000 ppm with Pieris brassicae [1] is 100%. In the test on Pieris brassicae [2], the AFI is 99.5%.
As for `C=C1[C@@H]2[C@@H](OC(=O)C=C[C@@]2(C)[C@H]2CC(=O)OC2(C)C)[C@H](OC(C)=O)[C@@]2(C)[C@H](C3=CC(O)OC3=O)C[C@H]3O[C@]132` (some centres undefined) [MUNRONIN A], the mortality at 1000 ppm with Pieris brassicae [1] is 20%. In addition, the AFI with Pieris brassicae [2] came out at 0%.
In the case of `C=C1[C@@H]2[C@@H](OC(=O)C=C[C@@]2(C)[C@H]2CC(=O)OC2(C)C)[C@H](OC(C)=O)[C@@]2(C)[C@H](C3=CC(=O)OC3O)C[C@H]3O[C@]132` (some centres undefined) [MUNRONIN B], in the test with Pieris brassicae [1], the mortality at 1000 ppm came out at 10%. Also, in the test on Pieris brassicae [2], the AFI was 20.9%.
As to `C=C1[C@@H]2[C@@H](OC(=O)C=C[C@@]2(C)[C@H]2CC(=O)OC2(C)C)[C@H](OC(C)=O)[C@@]2(C)[C@H](C3=CCOC3=O)C[C@H]3O[C@]132` [MUNRONIN C], the mortality at 1000 ppm in the test on Pieris brassicae [1] worked out at 10%. Besides, the AFI with Pieris brassicae [2] turned out to be 31%.
Consider `C=C1[C@@H]2[C@@H](OC(=O)C=C[C@@]2(C)[C@H]2CC(=O)OC2(C)C)[C@H](OC(C)=O)[C@@]2(C)[C@H](C3=CCNC3=O)C[C@H]3O[C@]132` [MUNRONIN D], for which the mortality at 1000 ppm in the test with Pieris brassicae [1] is 10%. For the same compound, in the test with Pieris brassicae [2], the AFI was found to be 28%.
Regarding `C#C[C@@H]1C[C@H]2O[C@]23C(=C)[C@@H]2[C@@H](OC(=O)C=C[C@@]2(C)[C@H]2CC(=O)OC2(C)C)[C@H](OC(C)=O)[C@@]13C` [MUNRONIN E], the mortality at 1000 ppm with Pieris brassicae [1] is 10%. Moreover, the AFI with Pieris brassicae [2] came to 37.1%.
The like results for `C=C1[C@@H]2[C@@H](OC(=O)C=C[C@@]2(C)[C@H]2CC(=O)OC2(C)C)[C@H](OC(C)=O)[C@@]2(C)[C@H](C(=O)O)C[C@H]3O[C@]132` [MUNRONIN F] were, in that order, 0% and 0%.

The record behind these values is ChEMBL document CHEMBL3046813, “Novel tetranortriterpenoid derivatives from Munronia henryi” (2003).
